Test results: patent US20130137760A1, “GAMBOGIC AMINE, A SELECTIVE TRKA AGONIST WITH NEUROPROTECTIVE ACTIVITY” (EMORY UNIVERSITY, priority 2007, published 2013)

Assays:
[1] = test system: T17 cells (TrkA stably transfected SN56 cells); assay: Cell-based apoptotic assay: protection of TrkA-expressing T17 cells from staurosporine-initiated apoptosis, MR(DEVD)2 caspase-3 dye; design: species or system murine; conditions: for apoptosis inhibitory activity in T17 cells: 0.5 μM pre-incubation, then 1 μM STS for 9 h, compared with NGF
Description: In order to identify small molecules that mimic NGF and activate TrkA, we developed a cell-based apoptotic assay using a cell permeable fluorescent dye MR([…])2, which turns red upon caspase-3 cleavage in apoptotic cells. We utilized a murine cell line T17, which was derived from basal forebrain SN56 cells. T17 cells are TrkA stably transfected SN56 cells. The candidates selectively protecting T17 but not SN56 cells from the first round screen can then be subjected to neurite outgrowth assay for the secondary screen. The positive compounds can be analyzed for TrkA tyrosine phosphorylation, Akt and MAP kinases signaling cascade activation.
T17 cells can be cultured in 96-well plates and preincubated with 10 μM compounds for 30 min, followed by 1 μM staurosporine (STS) treatment for 9 h. MR(DEVD)2 can be introduced to the cells 1 h before examination under fluorescent microscope. The apoptotic cells are red, while live cells have no signal. […] Using the caspase-3-activated fluorescent dye as a visual assay, one can screen the gambogic amine compounds.
To compare the apoptosis inhibitory activity of various compounds, one can pre-incubate gambogic amines derivatives (0.5 μM) with T17 and SN56 cells, followed by 1 μM STS for 9 h. Quantitative analysis of the apoptosis inhibitory activities can determine whether the compounds protect SN56 cells from apoptosis.
T17 cells can be seeded in a 96-well plate at 10,000 cells/well in 100 μl complete medium. Cells can be incubated overnight, followed by 30 min pretreatment with 10 μM compounds in DMSO (10 mM stock concentration from The Spectrum Collection library). The cells can then be treated with 1 μM Staurosporine for 9 h. One h before the termination of the experiment, 10 μM MR(DEVD)2, a cell permeable caspase-3-activated fluorescent dye can be introduced. Cells can be fixed with 4% paraformaldehyde for 15 min. Cells can then be washed with PBS and incubated with 1 μg/ml of Hoechst 33342 for 10 min. Cover slides can then be washed with PBS, mounted, and examined using a fluorescence microscope.

[2] = Kasibhatla et al., 2005; cited from earlier work
[3] = test system: hippocampus; assay: Kainic acid-elicited neuronal cell death in mouse brain (TUNEL, hippocampus); type: in vivo, C57BL/6 mice; conditions: KA alone, quantitative analysis of apoptosis
Description: Kainic acid (KA) is a potent agonist for the AMPA receptor. Peripheral injections of KA result in recurrent seizures and the subsequent degeneration of select populations of neurons in the hippocampus (Nadler et al., 1980; Schauwecker and Steward, 1997; Sperk et al., 1983). It has been shown that the activation of caspase-3 is a necessary component of KA-induced cell death (Faherty et al., 1999). To explore whether test compounds can block the neurotoxicity initiated by KA, the compounds can be subcutaneously injected (for example, at a concentration of 2 mg/kg) into C57BL/6 mice, followed by 25 mg/kg KA. In 5 days, the mice can be perfused and the brains cut to a thickness of 5 μm and mounted on slides.
Kainic acid (KA) is a potent agonist for the AMPA receptor. Peripheral injections of KA result in recurrent seizures and the subsequent degeneration of select populations of neurons in the hippocampus (Nadler et al., 1980; Schauwecker and Steward, 1997; Sperk et al., 1983). It has been shown that the activation of caspase-3 is a necessary component of KA-induced cell death (Faherty et al., 1999). To explore whether gambogic amines can block the neurotoxicity initiated by KA, one can subcutaneously inject 2 mg/kg of a gambogic amine into C57BL/6 mice, followed by 25 mg/kg KA. In 5 days, the mice can be perfused and the brains were cut to a thickness of 5 μm and mounted on slides. TUNEL staining can reveal whether KA provokes enormous apoptosis in the hippocampus, and whether this effect is substantially diminished by the gambogic amine.
Male C57BL/6 mice aged of 60 days can be injected subcutaneously (s.c.) with a single dose of either 30% ethanol in saline or KA (25 mg/kg) (Sigma, Mo.) or the gambogic amine (2 mg/kg) followed by KA. Animals can be continually monitored for 2 h for the onset of seizure activity. At 5 days following treatment, animals can be anesthetized and perfused with 4% paraformaldehyde in 0.1 M phosphate buffered saline. Brains can be removed, post-fixed overnight and processed for paraffin embedding. […]

[4] = test system: Erk1/2 and Akt; assay: Erk1/2 and Akt phosphorylation in T17 cells, immunoblot; type: cell-based, murine; conditions: 30 min
Procedure: (§1) NGF triggers PI 3-kinase/Akt and Ras/MAP Kinase signaling cascades activation through the TrkA receptor. […] The cell lysates can be analyzed by immunoblotting with anti-phospho-Erk1/2 and phospho-Akt-473 antibodies, respectively. […] One can also extend the assays into primary hippocampal neurons. […] Time course assay with hippocampal neurons can show whether gambogic amines (0.5 μM) elicit Akt phosphorylation after 5 min treatment, and whether Akt activation increases after 10 min and is sustained for 60 min. One can also determine whether the gambogic amines provoke Akt activation in a dose-dependent manner.

[5] = test system: TrkA; assay: TrkA tyrosine phosphorylation in primary hippocampal neurons, anti-phospho-TrkA Y490 immunoblot; type: cell-based; conditions: 30 min
Description: NGF binds to receptor TrkA and elicits its dimerization and autophosphorylation on tyrosine residues. Numerous tyrosine residues on TrkA are phosphorylated upon NGF stimulation. For example, Y490 phosphorylation is required for Shc association and activation of MAP kinase signaling cascade. Y751 phosphorylation is essential for PI 3-kinase docking and activation. To evaluate whether gambogic amine compounds can also trigger TrkA tyrosine phosphorylation, one can treat primary hippocampal neurons with various drugs at 0.5 μM for 30 min. The cell lysates can be analyzed by immunoblotting with anti-phospho-TrkA Y490 antibody. […] To explore whether gambogic amines can trigger TrkA dimerization, one can cotransfect GFP-TrkA and HA-TrkA into HEK293 cells, and treat the cells with 0.5 μM gambogic amine for 30 min. Communoprecipitation assays can be used to determine whether gambogic amines provoke TrkA dimerization even more strongly than NGF. One can also evaluate whether the gambogic amines also elicit tyrosine phosphorylation in TrkA but not in TrkB or C receptors.

[6] = test system: PC12 cells; assay: Neurite outgrowth in PC12 cells; type: cell-based; conditions: after 5 days of treatment
Procedure: One of most prominent neurotrophic effects of NGF is to trigger neurite outgrowth in neuronal cells and incur differentiation. […] The cell medium containing the compounds can be replenished every other day. […] The gambogic amine compounds can similarly be evaluated for their ability to induce evident neurite outgrowth in PC12 cells. Dose-dependent assays can reveal whether 10-50 nM of gambogic amines are sufficient to provoke substantial neurite sprouting in PC12 cells.

[7] = test system: Akt; assay: Akt activation in primary hippocampal neurons; type: cell-based
Procedure: as §1

For `COC(=O)/C(C)=C\CC12OC(C)(C)C3CC(C=C4C(=O)c5c(OC)c6c(c(CC=C(C)C)c5OC431)OC(C)(CCC=C(C)C)C=C6)C2=O` (centres unmarked) [dimethyl gambogate], the “apoptosis inhibitory activity in T17 cells” value (from here on “apoptosis inhibitory activity”) [1] was “strongly suppress apoptosis in T17 cells with protective activities even stronger than NGF”.
In the case of `CC(C)=CCC[C@]1(C)C=Cc2c(O)c3c(c(CC=C(C)C)c2O1)O[C@]12C(=C[C@@H]4C[C@H]1C(C)(C)O[C@@]2(C/C=C(/C)C(=O)O)C4=O)C3=O` [gambogic acid, Gambogic Acid], the “Kd of association with Transferrin” value [2] is given as 2.2 µM and the “apoptosis inhibitory activity” value [1] is given as “strongly suppress apoptosis in T17 cells with protective activities even stronger than NGF”.
With `C=C(C)[C@H]1CN[C@H](C(=O)O)[C@H]1CC(=O)O` [KA, Kainic acid] the “cell death in the CA1 region of the hippocampus” value ([3]; CA1 region) was 47% and the “cell death in the CA3 region of the hippocampus” value ([3]; CA3 region) was 57%.
In the case of `CC(C)=CCCC1(C)C=Cc2c(O)c3c(c(CC=C(C)C)c2O1)OC12C(=CC4CC1C(C)(C)OC2(C/C=C(/C)C(=O)O)C4O)C3=O` (centres unmarked) [dihydrogambogic acid], the “apoptosis inhibitory activity” value [1] is reported as “strongly suppress apoptosis in T17 cells with protective activities even stronger than NGF”.
For “NGF: nerve growth factor, binds mainly TrkA; positive control, from Roche”, the “Erk1/2 and Akt phosphorylation” value [4] was “stimulates demonstrable Erk1/2 and Akt phosphorylation”, the “TrkA phosphorylation (Y490)” value [5] was “induces potent TrkA phosphorylation” and the “neurite sprouting in PC12 cells” value [6] was “pronounced neurite sprouting”. For the same compound, the Akt activation [7] was “evidently activates Akt” and the “red (apoptotic) cell numbers compared to DMSO control” value ([1]; positive control, 1 μM staurosporine for 9 h, MR(DEVD)2 dye) was “substantially decreases the red cell numbers”.
